Reference: patent publication US6825223B2, “Anilide compounds and pharmaceutical compositions comprising them” (Kowa Company, Ltd., priority 1996, dated 2004)
Each block holds one compound with its values, some of them ahead of it.

Tests used:
[1] = tested on: ACAT in HepG2 cell; test: ACAT inhibiting activity in HepG2 cell; type: cell-based; settings: 10 μg/ml 25-OH cholesterol, 18 hours, cholesterol ester per protein, read-out: HepG 2-Derived Enzyme IC50
Method: (§1) ACAT inhibiting activities in J774 cell and HepG2 cell (Anti-foaming activities).
(§2) J774 cell and HepG2 cell were sown on 24-holes-plates, and J774 cell was cultured with DMEM culturing solution (including 10% fetal bovine serum) and HepG2 cell was cultured with MEM culturing solution (including 10% fatal bovine serum) and they were incubated with 5% CO2 at 37° C. for 24 hours. […] After redwing the medium, each cultured cell was washed with PBS two ties, and then extracted with 1.5 ml of hexane:iso-propanol (3:2), and concentrated and dried. Each extracted substance was dissolved into iso-propanol including 0.2 ml of 10% Triton X-100. And total cholesterol (TC) of each was measured with Cholesterol E Test Wako (Wako Junyaku Co.), and free cholesterol […] of each was measured with Free Cholesterol E Test Wako (Wako Junyaku Co.). The residue of extracting was dissolved with 0.25 ml of 2N NaOH at 37° C. for 30 minutes, and an amount of protein was measured with BCA Protein Assay Reagent (Pierce). The amount of cholesterol ester per protein was calculated based on a difference between TC and FC, and IC50 was calculated in contrast with control.

[2] = target: T1, ACAT in J774 cell (Mus musculus, UniProt Q61263); test: ACAT inhibiting activity in J774 cell (anti-foaming activity); type: cell-based; settings: for IC50: J774 cell, 10 μg/ml 25-OH cholesterol, 18 hours, cholesterol ester per protein, read-out: J 774 Cell-Derived Enzyme IC50; for IC50 (HepG 2)/IC50 (J 774): ratio of the two cell IC50 values
T1 construct: endogenous in cells; host or cells: J774 cells
T1 sequence (Q61263 1-540): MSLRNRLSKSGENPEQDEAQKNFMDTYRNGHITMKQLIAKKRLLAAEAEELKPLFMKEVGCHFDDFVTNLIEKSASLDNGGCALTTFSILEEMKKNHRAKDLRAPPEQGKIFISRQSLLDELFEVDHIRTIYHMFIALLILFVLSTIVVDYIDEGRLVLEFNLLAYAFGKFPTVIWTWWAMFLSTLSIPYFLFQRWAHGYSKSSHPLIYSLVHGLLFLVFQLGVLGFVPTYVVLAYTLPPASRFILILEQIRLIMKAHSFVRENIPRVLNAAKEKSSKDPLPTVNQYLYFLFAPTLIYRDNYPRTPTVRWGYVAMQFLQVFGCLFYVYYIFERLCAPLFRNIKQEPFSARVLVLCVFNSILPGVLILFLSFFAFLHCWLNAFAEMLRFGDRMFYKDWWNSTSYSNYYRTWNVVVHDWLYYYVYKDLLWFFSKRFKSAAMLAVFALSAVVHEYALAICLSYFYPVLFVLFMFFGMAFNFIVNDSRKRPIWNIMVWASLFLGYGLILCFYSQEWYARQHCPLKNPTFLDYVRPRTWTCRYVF
Method: as §1, §2

[3] = target: T2, ACAT (small intestine-derived enzyme) (Oryctolagus cuniculus, UniProt G1SFD9); test: ACAT inhibiting activity, small intestine-derived enzyme liquid; type: biochemical, rabbit; settings: small intestines of rabbits fed ordinary feed; 14C-oleoyl-CoA; 37° C. 3 minutes
T2 sequence (G1SFD9 1-524): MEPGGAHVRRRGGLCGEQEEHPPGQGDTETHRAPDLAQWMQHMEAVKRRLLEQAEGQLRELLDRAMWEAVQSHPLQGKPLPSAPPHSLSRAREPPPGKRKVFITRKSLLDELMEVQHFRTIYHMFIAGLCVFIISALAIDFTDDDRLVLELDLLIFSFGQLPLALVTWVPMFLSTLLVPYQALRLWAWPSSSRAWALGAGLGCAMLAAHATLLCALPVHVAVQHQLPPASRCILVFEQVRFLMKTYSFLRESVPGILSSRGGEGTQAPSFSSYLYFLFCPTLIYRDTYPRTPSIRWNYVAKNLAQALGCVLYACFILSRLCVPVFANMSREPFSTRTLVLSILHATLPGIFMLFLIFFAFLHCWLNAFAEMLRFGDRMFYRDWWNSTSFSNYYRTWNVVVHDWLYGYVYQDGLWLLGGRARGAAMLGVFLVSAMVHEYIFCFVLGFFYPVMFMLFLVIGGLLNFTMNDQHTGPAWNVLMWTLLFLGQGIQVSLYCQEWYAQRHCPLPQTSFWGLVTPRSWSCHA
Method: (§3) Rabbits were fed with 1% cholesterol feed for 8 weeks. Microsomes were prepared from the thoracoaorta of the rabbits in an ordinary manner, and suspended in 0.15 M phosphate buffer (pH 7.4) to prepare blood vessel wall-derived enzyme liquids, Small intestine-derived enzyme liquids were prepared from the small intestines of rabbits fed with ordinary feed. […] 10 μl of the enzyme liquid was added to the resulting solution and reacted at 37° C. for 5 minutes (for small intestine-derived enzyme liquids, for 3 minutes), and thereafter 3 ml of chloroform/methanol (2/1) and 0.5 ml of 0.04 N HCl were added thereto to stop the reaction. After the reaction, lipids were extracted from the reaction mixtures. The solvent layer was concentrated to dryness, then dissolved in hexane, spotted on a TLC plate (produced by Merck), and developed thereon with a developer of hexane/ether/acetic acid (75/25/1) The radioactivity of the thus-fractionated cholesterol ester fraction was measured with BAS2000 (produced by Fuji Film).

[4] = target: ACAT (blood vessel wall-derived enzyme) (Oryctolagus cuniculus, UniProt G1SUQ0); test: ACAT inhibiting activity, blood vessel wall-derived enzyme liquid (thoracoaorta microsomes); type: biochemical, rabbit; settings: microsomes from thoracoaorta of rabbits fed 1% cholesterol feed; 14C-oleoyl-CoA; 37° C. 5 minutes
Method: as §3

[5] = Deterioration action of cholesterol in plasma, F1B hamster on hyperfat foods; type: in vivo, BIO F1B hybrid syrian hamster; settings: for inhibiting an increase (%): 4th week, against hyperfat and ordinal foods groups; for Total Cholestrol in Plasma, At the 4th Week: fed 4 weeks
Method: A deterioration action of cholesterol in plasma was tested with BIO F1B hybrid syrian hamster (Mark C. K. et al., Atheorosclerosis, 91 (1991) 35-49: abbreviated as FIB hamster in the following) which has an accumulation of Cholesterol in blood vessel by cholesterol load. That is 4 groups of FIB hamster (male, 8 weeks old, about 100 g weight) were made, which had five hamsters respectively, and the hamsters were fed with the below-described feeds corresponding to each group for 4 weeks. At the 4th week from beginning feed, blood of the hamsters were drawn from their jugulars; and values of total cholesterols in plasma were measured with the enzyme method.

[6] = group (3): 0.03% compound added to hyperfat foods
[7] = group (4): 0.3% compound added to hyperfat foods

Chain of ACAT (blood vessel wall-derived enzyme) (G1SUQ0 entry or part of it): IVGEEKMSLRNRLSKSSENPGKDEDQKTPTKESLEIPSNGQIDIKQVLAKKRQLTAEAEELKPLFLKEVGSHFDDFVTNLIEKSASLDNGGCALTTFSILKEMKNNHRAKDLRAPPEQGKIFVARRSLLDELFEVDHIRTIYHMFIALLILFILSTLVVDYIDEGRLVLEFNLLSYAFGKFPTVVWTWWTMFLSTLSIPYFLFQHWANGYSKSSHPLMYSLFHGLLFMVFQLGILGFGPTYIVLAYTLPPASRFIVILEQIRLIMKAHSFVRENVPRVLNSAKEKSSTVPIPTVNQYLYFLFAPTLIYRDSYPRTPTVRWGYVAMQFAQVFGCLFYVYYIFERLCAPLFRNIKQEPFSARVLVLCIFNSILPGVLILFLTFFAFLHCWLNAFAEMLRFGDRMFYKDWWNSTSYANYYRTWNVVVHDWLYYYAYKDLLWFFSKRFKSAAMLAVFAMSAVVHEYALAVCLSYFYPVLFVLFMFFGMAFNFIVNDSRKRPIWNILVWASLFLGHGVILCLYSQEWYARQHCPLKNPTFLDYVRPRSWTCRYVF

SMILES: CC(C)c1cccc(C(C)C)c1NC(=O)CSc1nc2ccccc2[nH]1 [Example 23, 2-(benzimidazol-2-ylthio)-N-(2,6-diisopropylphenyl)acetamide]
- IC50 [1]: 12000 nM
- IC50 [2]: 2200 nM
- IC50 (HepG 2)/IC50 (J 774) [2]: 6.45

SMILES: CCCCCCCN(CCCCCSc1nc(-c2ccccc2)c(-c2ccccc2)[nH]1)c1nc2ccccc2o1 [Control (4), N4-[5-(4,5-diphenyl-1H-imidazol-2-ylthio)pentyl]-N-heptyl-2-benzoxazolamine, reference compound]
- IC50 [3]: 37 nM
- IC50 [4]: 26 nM
- IC50 [2]: 120 nM
- IC50 (HepG 2)/IC50 (J 774) [2]: 6.26

SMILES: CC(C)c1cccc(C(C)C)c1NC(=O)CCCCCCCCSc1nc2ccccc2o1 [Example 8, 9-(benzoxazol-2-ylthio)-N-(2,6-diisopropylphenyl)nonanamide]
- inhibiting an increase (%) [5, 6]: 80.5%
- Total Cholestrol in Plasma, Before Dosage [5, 6]: 155.5 ± 10.1 mg/dL
- Total Cholestrol in Plasma, At the 4th Week [5, 6]: 398.3 ± 64.3 mg/dL
- inhibiting an increase (%) [5, 7]: 111.7%
- Total Cholestrol in Plasma, Before Dosage [5, 7]: 164.3 ± 8.8 mg/dL
- Total Cholestrol in Plasma, At the 4th Week [5, 7]: 170.1 ± 18.5 mg/dL

SMILES: CC(C)c1cccc(C(C)C)c1NC(=O)CCCSc1nc2ccccc2s1 [Example 44, 4-(benzothiazol-2-ylthio)-N-(2,6-diisopropylphenyl)butanamide]
- IC50 [1]: 2100 nM
- IC50 [2]: 5600 nM
- IC50 (HepG 2)/IC50 (J 774) [2]: 0.38

SMILES: CC(C)c1cccc(C(C)C)c1NC(=O)CCSc1nc2ccccc2o1 [Example 2, 3-(benzoxazol-2-ylthio)-N-(2,6-diisopropylphenyl)propanamide]
- IC50 [1]: 1200 nM
- IC50 [2]: 470 nM
- IC50 (HepG 2)/IC50 (J 774) [2]: 2.55

SMILES: CC(C)c1cccc(C(C)C)c1NC(=O)C(C)(C)CCCOc1ccc2c(c1)C=C(c1nccn1C)C(CCc1ccc(F)cc1)O2 (stereo not shown) [Control (1), 5-[2-(2-(4-fluorophenyl)ethyl)-3-(1-methyl-1H-imidazol-2-yl) -2H-benzopyran-6-yl]oxy-2,2-dimethyl-N-(2,6-diisopropylphenyl)pentanamide, reference compound]
- IC50 [3]: 870 nM
- IC50 (HepG 2)/IC50 (J 774) [2]: 9.46

Now from value to compound:

- IC50 [3]: 65 nM
- IC50 [4]: 10 nM
SMILES: CC(C)c1cccc(C(C)C)c1NC(=O)CCCCCSc1nc2ccccc2o1 [Example 5, 6-(benzoxazol-2-ylthio)-N-(2,6-diisopropylphenyl)hexanamide]

- IC50 [1]: 1000 nM
- IC50 [2]: 1200 nM
- IC50 (HepG 2)/IC50 (J 774) [2]: 0.83
SMILES: CC(C)c1cccc(C(C)C)c1NC(=O)CSc1nc2ccccc2o1 [Example 1, 2-(benzoxazol-2-ylthio)-N-(2,6-diisopropylphenyl)acetamide]

- IC50 [1]: 1400 nM
- IC50 [2]: 150 nM
SMILES: CCCCCCCCCCCCCCSCC(=O)Nc1c(C(C)C)cccc1C(C)C [Control (2), N-(2,6-diisopropylphenyl) -2-(tetradecylthio)acetamide, reference compound]
